Measured values reported in patent US12427179B2, “Compositions and methods for diagnosis and treatment of neurodegenerative diseases” (EPITRACKER, INC., priority 2019, dated 2025).

What was measured:
[1] = tested on: human primary cell-based systems; experiment: BioMAP Diversity PLUS panel, phenotypic profiling; settings: tested at 6.7 and/or 20 μM; 24 to 72 hours
Experimental: Anti-inflammatory phenotypic profiling was conducted across 12 human primary cell-based systems as part of DiscoverX's BioMAP Diversity Plus program. These systems are designed to model complex human tissue and disease biology of the vasculature, skin, lung, and inflammatory tissues. Quantitative measurements of biomarker activities across this broad panel were used to assess each biochemical's anti-inflammatory activity at four concentrations ([…] and 2.2, 6.7 and 20 μM). […] Protein-based biomarkers from activated cell systems were measured and compared with controls.
(§1) The Diversity PLUS panel allows test agent characterization in an unbiased way across a broad set of systems modeling various human disease states. These systems are designed to model complex human tissue and disease biology of the vasculature, skin, lung, and inflammatory tissues. Quantitative measurements of 148 biomarker activities across this broad panel, along with comparative analysis of biological activities from known bioactive agents, were used to predict and compare the efficacy and function of each selected compound at selected concentrations (6.7 and/or 20 μM).
(§2) BioMAP systems are constructed with one or more primary cell types from healthy human donors, with stimuli (such as cytokines or growth factors) added to capture relevant signaling networks that naturally occur in human tissue or pathological conditions. Vascular biology is modeled in both a Th1 (3C system) and a Th2 (4H system) inflammatory environment, as well as in a Th1 inflammatory state specific to arterial smooth muscle cells (CASM3C system). Additional systems recapitulate aspects of the systemic immune response including monocyte-driven Th1 inflammation (LPS system) or T cell stimulation (SAg system), chronic Th1 inflammation driven by macrophage activation (lMphg system) and the T cell-dependent activation of B cells that occurs in germinal centers (BT system). The BE3C system (Th1) and the BF4T system (Th2) represent airway inflammation of the lung, while the MyoF system models myofibroblast-lung tissue remodeling. Lastly, skin biology is addressed in the KF3CT system modeling Th1 cutaneous inflammation and the HDF3CGF system modeling wound healing.
(§3) Each test agent generates a signature BioMAP profile that is created from the changes in protein biomarker readouts within individual system environments. Biomarker readouts (7-17 per system) are selected for therapeutic and biological relevance, are predictive for disease outcomes or specific drug effects and are validated using agents with known mechanism of action (MoA). Each readout is measured quantitatively by immune-based methods that detect protein (e.g., ELISA) or functional assays that measure proliferation and viability. BioMAP readouts are diverse and include cell surface receptors, cytokines, chemokines, matrix molecules and enzymes. In total, the Diversity PLUS panel contains 148 biomarker readouts that capture biological changes that occur within the physiological context of the particular BioMAP system.
(§4) Activated BioMAP systems were incubated with each compound for 24 to 72 hours. Protein-based biomarkers from activated cell systems were measured and compared with non-treated control systems.

[2] = tested on: 3C system (Th1 vascular biology); experiment: BioMAP 3C system; type: cell-based, human; settings: at the compound's active concentration
Description: as §3, with “The Diversity PLUS panel allows test agent characterization in an unbiased way across a broad set of systems modeling various human disease states. These systems are designed to model complex human tissue and disease biology of the vasculature, skin, lung, and inflammatory tissues. […] BioMAP systems are constructed with one or more primary cell types from healthy human donors, with stimuli (such as cytokines or growth factors) added to capture relevant signaling networks that naturally occur in human tissue or pathological conditions. […] Each test” for “Each test”, “BioMAP system. […]” for “BioMAP system.”

[3] = tested on: 4H: Venular endothelial cells (IL-4, histamine); experiment: BioMAP 4H system; type: cell-based, human; settings: at the compound's active concentration
Description: as §1
BioMAP systems are constructed with one or more primary cell types from healthy human donors, with stimuli (such as cytokines or growth factors) added to capture relevant signaling networks that naturally occur in human tissue or pathological conditions. Vascular biology is modeled in both a Th1 (3C system) and a Th2 (4H system) inflammatory environment, as well as in a Th1 inflammatory state specific to arterial smooth muscle cells (CASM3C system). […]
as §3, with “system. […]” for “system.”
as §4

[4] = tested on: CASM3C: Coronary artery smooth muscle cells (IL-1β, TNFα, IFNγ); experiment: BioMAP CASM3C system; type: cell-based, human; settings: CASM3C system; at the compound's active concentration
Description: The Diversity PLUS panel allows test agent characterization in an unbiased way across a broad set of systems modeling various human disease states. These systems are designed to model complex human tissue and disease biology of the vasculature, skin, lung, and inflammatory tissues.
as §2
as §3, with “enzymes.” for “enzymes. In total, the Diversity PLUS panel contains 148 biomarker readouts that capture biological changes that occur within the physiological context of the particular BioMAP system.”
as §4

[5] = tested on: /Mphg: Macrophages, venular endothelial cells (TLR2 ligand); experiment: BioMAP /Mphg system; type: cell-based, human; settings: at the compound's active concentration
Description: as §1, §2
as §3, with “system. […]” for “system.”
as §4

**Q.** What does the source list for `O=C(O)CNC(=O)c1ccccc1` [hippurate]?
**A.** Active concentrations [1]: 6.7 to 20 µM; Tissue factor, log10 reduction vs nontreated controls [2]: −0.10 log10; P-selectin, log10 reduction vs nontreated controls [3]: −0.10 log10; Thrombomodulin, log10 reduction vs nontreated controls [4]: −0.16 log10; IL-8, log10 reduction vs nontreated controls [5]: −0.12 log10
